Values quoted from earlier work, collected in article PMC7395068, “The evolution of strategies to minimise the risk of human drug-induced liver injury (DILI) in drug discovery and development” (Archives of Toxicology, 2020).
Where two headings read alike, the source gives them in different places.

Experiments:
[1] = system: THLE or HepG2 cells, isolated mitochondria, BSEP; conditions: In vitro Assay; ref Aleo 2019; cited from earlier work
[2] = system: HepG2 C3A spheroid, BSEP, Glu/Gal in HepG2 cells, bioactivation; conditions: cited from earlier work
[3] = cited from earlier work
[4] = ref Chen 2016; cited from earlier work
[5] = system: primary human hepatocytes, NIH3T3 fibroblasts, BSEP, CYP3A4; conditions: In vitro Assay; ref Schadt 2015; cited from earlier work
[6] = system: HepG2 cells; conditions: In vitro Assay; ref Persson 2013; cited from earlier work
[7] = system: PHH spheroids; conditions: In vitro Assay; ref Vorrink 2018; cited from earlier work
[8] = system: THLE-Null and THLE-3A4 cells; conditions: In vitro Assay; ref Gustafsson 2014; cited from earlier work
[9] = system: HepG2 cells, primary human hepatocytes; conditions: In vitro Assay; ref Garside 2014; cited from earlier work
[10] = system: isolated mouse liver mitochondria; conditions: In vitro Assay; ref Porceddu 2012; cited from earlier work
[11] = system: rBsep; conditions: In vitro Assay; ref Dawson 2012; cited from earlier work
[12] = system: PHH; conditions: In vitro Assay; ref Proctor 2017; cited from earlier work
[13] = system: hLiMTs; conditions: In vitro Assay; ref Proctor 2017; cited from earlier work
[14] = system: HepG2 cells; conditions: In vitro Assay; ref O'Brien 2006; cited from earlier work
[15] = system: human hepatocytes; conditions: In vitro Assay; ref Xu 2008; cited from earlier work
[16] = In vitro Assay, ref Williams 2019

## CC(C)(C)NCC(O)c1ccc(O)c(CO)c1 (centres unmarked) [albuterol]
[1]
  Partition Hybrid HRM Score: -VE
  Ro2 Hybrid HRM Score: -VE
[2]; ref Williams 2019
  Bayesian Machine Learning: -VE
[3]; ref Aleo 2019
  In vivo DILI: -VE
[3]; ref Proctor 2017
  In vivo DILI: -VE
[3]; ref Williams 2019
  In vivo DILI: -VE

## CCCN(CCC)C(=O)Cc1c(-c2ccc(Cl)cc2)nc2ccc(Cl)cn12 [alpidem]
[4]
  DILI +VE (5-8), DILI -VE (-4): +VE
  DILI severity category: vMost-DILI-Concern
[5]
  Cellular toxicity (3T3 cells): -VE
  Combined Assay: -VE
  GSH adduct HML: +VE
  Hepatocyte cellular toxicity: +VE
  MitoTox 3T3: -VE
  TDI CYP3A4: -VE
  hBSEP inhibition: +VE
[6]
  Cluser analysis: +VE
  Structural based (HCI): +VE
[7]
  hLiMTs ATP <20 x Cmax: +VE (IC20 < 20 × Cmax.tot cut-off)
[3]; […]
  In vivo DILI: +VE
[3]; ref Dawson 2012
  In vivo DILI: +VE
[3]; ref Garside 2014
  In vivo DILI: +VE
[3]; ref Gustafsson 2014
  In vivo DILI: +VE
[3]; ref Persson 2013
  In vivo DILI: +VE
[3]; ref Porceddu 2012
  In vivo DILI: +VE
[3]; ref Schadt 2015
  In vivo DILI: +VE
[3]; ref Vorrink 2018
  In vivo DILI: +VE
[8]
  THLE-Null: -VE
  THLE-Null/3A4: -VE
[9]
  Cluster 1-6 +VE Assay: +VE
[10]
  in vitro data EC2<=1x Cmax: +VE
  in vitro data EC20<=2uM: +VE
[11]
  Inhibition of rBsep cutoff<1& cmax u>.2: +VE
  Inhibition of rBsep cutoff<3: +VE

## Cc1c(N(C)C)c(=O)n(-c2ccccc2)n1C [aminopyrine]
[2]; ref Williams 2019
  Bayesian Machine Learning: +VE

## CN1[C@@H]2CC[C@H]1C[C@@H](OC(c1ccccc1)c1ccccc1)C2 [benztropine]
[4]
  DILI +VE (5-8), DILI -VE (-4): -VE
  DILI severity category: vNo-DILI-Concern
[1]
  Ro2 Hybrid HRM Score: -VE
[12]
  PHH ATP <100uM: +VE (IC50 threshold of 100 µM)
[13]
  hLiMTs ATP <100uM: +VE (IC50 threshold of 100 µM)
[2]; ref Williams 2019
  Bayesian Machine Learning: -VE
[3]; ref Aleo 2019
  In vivo DILI: -VE
[3]; ref Proctor 2017
  In vivo DILI: -VE
[3]; ref Williams 2019
  In vivo DILI: -VE

## CC(C)(Oc1ccc(CCNC(=O)c2ccc(Cl)cc2)cc1)C(=O)O [bezafibrate]
[5]
  Cellular toxicity (3T3 cells): -VE
  Combined Assay: -VE
  GSH adduct HML: -VE
  Hepatocyte cellular toxicity: -VE
  MitoTox 3T3: -VE
  TDI CYP3A4: -VE
  hBSEP inhibition: -VE
[14]
  Structural based (HCI): +VE
[15]
  Structural based (HCI): -VE
[7]
  hLiMTs ATP <20 x Cmax: -VE
[3]; ref Dawson 2012
  In vivo DILI: +VE
[3]; ref Garside 2014
  In vivo DILI: +VE
[3]; ref Gustafsson 2014
  In vivo DILI: +VE
[3]; ref O'Brien 2006
  In vivo DILI: -VE
[3]; ref Schadt 2015
  In vivo DILI: -VE
[3]; ref Vorrink 2018
  In vivo DILI: -VE
[3]; ref Xu 2008
  In vivo DILI: -VE
[8]
  THLE-Null: -VE
  THLE-Null/3A4: -VE
[9]
  Cluster 1-6 +VE Assay: -VE
[11]
  Inhibition of rBsep cutoff<1& cmax u>.2: -VE
  Inhibition of rBsep cutoff<3: -VE

## O=C1[C@H](CC[C@H](O)c2ccc(F)cc2)[C@@H](c2ccc(O)cc2)N1c1ccc(F)cc1 [ezetimibe]
[4]
  DILI +VE (5-8), DILI -VE (-4): +VE
  DILI severity category: vLess-DILI-Concern
[2]; [16]
  Bayesian Machine Learning: -VE
[3]; ref Williams 2019
  In vivo DILI: +VE

## Nc1nc(F)nc2c1ncn2[C@@H]1O[C@H](CO)[C@@H](O)[C@@H]1O [fludarabine]
[4]
  DILI +VE (5-8), DILI -VE (-4): -VE
  DILI severity category: vNo-DILI-Concern
[12]
  PHH ATP <100uM: -VE
[13]
  hLiMTs ATP <100uM: +VE (IC50 threshold of 100 µM)
[2]
  Bayesian Machine Learning: -VE
[3]; ref Proctor 2017
  In vivo DILI: -VE
[3]; ref Williams 2019
  In vivo DILI: -VE

## O=C(NC1CCN(CCc2c[nH]c3ccccc23)CC1)c1ccccc1 [indoramin]
[12]
  PHH ATP <100uM: -VE
[13]
  hLiMTs ATP <100uM: -VE
[2]; ref Williams 2019
  Bayesian Machine Learning: -VE
[3]; ref Proctor 2017
  In vivo DILI: -VE
[3]; ref Williams 2019
  In vivo DILI: -VE

## Cc1ccc(Cl)c(Nc2ccccc2C(=O)O)c1Cl [meclofenamate]
[15]
  Structural based (HCI): +VE
[2]; ref Williams 2019
  Bayesian Machine Learning: +VE
[3]; ref Williams 2019
  In vivo DILI: -VE
[3]; ref Xu 2008
  In vivo DILI: +VE

## CN1C[C@H](CNC(=O)OCc2ccccc2)C[C@@H]2c3cccc4c3c(cn4C)C[C@H]21 [metergoline]
[2]; ref Williams 2019
  Bayesian Machine Learning: -VE

## CN1Cc2c(N)cccc2C(c2ccccc2)C1 (centres unmarked) [nomifensine]
[4]
  DILI +VE (5-8), DILI -VE (-4): +VE
  DILI severity category: vMost-DILI-Concern
[14]
  Structural based (HCI): -VE
[6]
  Cluser analysis: -VE
  Structural based (HCI): -VE
[15]
  Structural based (HCI): -VE
[1]
  Partition Hybrid HRM Score: +VE
  Ro2 Hybrid HRM Score: -VE
[7]
  hLiMTs ATP <20 x Cmax: +VE (IC20 < 20 × Cmax.tot cut-off)
[3]; ref Aleo 2019
  In vivo DILI: +VE
[3]; ref Dawson 2012
  In vivo DILI: +VE
[3]; ref Garside 2014
  In vivo DILI: +VE
[3]; ref Gustafsson 2014
  In vivo DILI: +VE
[3]; ref O'Brien 2006
  In vivo DILI: -VE
[3]; ref Persson 2013
  In vivo DILI: +VE
[3]; ref Vorrink 2018
  In vivo DILI: +VE
[3]; ref Xu 2008
  In vivo DILI: +VE
[8]
  THLE-Null: -VE
[9]
  Cluster 1-6 +VE Assay: -VE
[11]
  Inhibition of rBsep cutoff<1& cmax u>.2: -VE

## CC(N/C(=N\C#N)Nc1ccncc1)C(C)(C)C (centres unmarked) [pinacidil]
[14]
  Structural based (HCI): -VE
[6]
  Cluser analysis: -VE
  Structural based (HCI): -VE
[15]
  Structural based (HCI): -VE
[7]
  hLiMTs ATP <20 x Cmax: -VE
[3]; in vivo
  In vivo DILI: -VE
[8]
  THLE-Null: -VE
  THLE-Null/3A4: -VE
[9]
  Cluster 1-6 +VE Assay: +VE
[11]
  Inhibition of rBsep cutoff<1& cmax u>.2: -VE
  Inhibition of rBsep cutoff<3: +VE

## CN(C)C(=O)Oc1ccc[n+](C)c1 [pyridostigmine]
[2]
  Bayesian Machine Learning: -VE

## Cc1ncc(CO)c(CO)c1O [pyridoxine]
[4]
  DILI +VE (5-8), DILI -VE (-4): -VE
  DILI severity category: vNo-DILI-Concern
[14]
  Structural based (HCI): +VE
[6]
  Cluser analysis: -VE
  Structural based (HCI): -VE
[15]
  Structural based (HCI): -VE
[7]
  hLiMTs ATP <20 x Cmax: -VE
[3]; ref Dawson 2012
  In vivo DILI: -VE
[3]; ref Garside 2014
  In vivo DILI: -VE
[3]; ref Gustafsson 2014
  In vivo DILI: -VE
[3]; ref O'Brien 2006
  In vivo DILI: -VE
[3]; ref Persson 2013
  In vivo DILI: -VE
[3]; ref Vorrink 2018
  In vivo DILI: -VE
[3]; ref Xu 2008
  In vivo DILI: -VE
[8]
  THLE-Null: -VE
  THLE-Null/3A4: -VE
[9]
  Cluster 1-6 +VE Assay: -VE
[11]
  Inhibition of rBsep cutoff<1& cmax u>.2: -VE
  Inhibition of rBsep cutoff<3: -VE

## Cc1cc2c(cc1CC(=O)c1sccc1S(=O)(=O)Nc1onc(C)c1Cl)OCO2 [sitaxentan]
[4]
  DILI +VE (5-8), DILI -VE (-4): +VE
  DILI severity category: vMost-DILI-Concern
[5]
  Cellular toxicity (3T3 cells): -VE
  Combined Assay: +VE
  GSH adduct HML: +VE
  Hepatocyte cellular toxicity: +VE
  MitoTox 3T3: -VE
  TDI CYP3A4: +VE
  hBSEP inhibition: +VE
[1]
  Partition Hybrid HRM Score: +VE
  Ro2 Hybrid HRM Score: +VE
[12]
  PHH ATP <100uM: -VE
[13]
  hLiMTs ATP <100uM: -VE
[2]; [16]
  Bayesian Machine Learning: +VE
[3]; ref Aleo 2019
  In vivo DILI: +VE
[3]; ref Proctor 2017
  In vivo DILI: +VE
[3]; ref Schadt 2015
  In vivo DILI: +VE
[3]; ref Williams 2019
  In vivo DILI: +VE
